Reference: ChEMBL document CHEMBL5537153, “Modifications to 1-(4-(2-Bis(4-fluorophenyl)methyl)sulfinyl)alkyl Alicyclic Amines That Improve Metabolic Stability and Retain an Atypical DAT Inhibitor Profile” (J Med Chem, 2024)
pKi: −log10 of the molar value.

Assays:
[1] = Metabolic stability of the compound in mouse liver microsomes assessed as parent compound remaining at 10 uM measured after 60 mins in presence of NADPH regenerating system by LC/MS analysis; format: ADME, Microsome; details: read-out: Stability
[2] = molecular target: Sodium-dependent serotonin transporter (Rattus norvegicus, UniProt P31652); test: Displacement of [3H]citalopram from SERT in Sprague-Dawley rat brainstem incubated for 60 mins by scintillation counting analysis; format: tissue-based
Sequence of Sodium-dependent serotonin transporter (P31652 whole entry): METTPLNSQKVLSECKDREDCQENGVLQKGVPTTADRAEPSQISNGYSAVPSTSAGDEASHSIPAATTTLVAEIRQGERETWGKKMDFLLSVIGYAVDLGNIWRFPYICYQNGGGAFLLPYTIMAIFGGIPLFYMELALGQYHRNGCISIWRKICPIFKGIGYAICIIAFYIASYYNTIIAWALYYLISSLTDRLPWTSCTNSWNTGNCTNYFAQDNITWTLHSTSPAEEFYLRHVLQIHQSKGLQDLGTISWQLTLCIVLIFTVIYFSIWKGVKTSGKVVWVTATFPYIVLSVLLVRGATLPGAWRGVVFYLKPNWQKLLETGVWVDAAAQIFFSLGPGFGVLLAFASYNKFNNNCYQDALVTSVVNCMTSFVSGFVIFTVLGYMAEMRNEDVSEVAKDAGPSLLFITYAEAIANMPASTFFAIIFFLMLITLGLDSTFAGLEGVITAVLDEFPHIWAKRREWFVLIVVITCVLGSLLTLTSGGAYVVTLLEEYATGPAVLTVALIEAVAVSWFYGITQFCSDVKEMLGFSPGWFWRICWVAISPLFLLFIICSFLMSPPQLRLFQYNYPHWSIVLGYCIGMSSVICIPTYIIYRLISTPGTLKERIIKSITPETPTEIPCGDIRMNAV

[3] = molecular target: Sodium-dependent dopamine transporter (Rattus norvegicus, UniProt P23977); test: Displacement of [3H]WIN35428 from DAT in Sprague-Dawley rat striatum incubated for 120 mins by scintillation counting analysis; format: tissue-based
Sequence of Sodium-dependent dopamine transporter (Rattus norvegicus, UniProt P23977) (P23977 whole entry): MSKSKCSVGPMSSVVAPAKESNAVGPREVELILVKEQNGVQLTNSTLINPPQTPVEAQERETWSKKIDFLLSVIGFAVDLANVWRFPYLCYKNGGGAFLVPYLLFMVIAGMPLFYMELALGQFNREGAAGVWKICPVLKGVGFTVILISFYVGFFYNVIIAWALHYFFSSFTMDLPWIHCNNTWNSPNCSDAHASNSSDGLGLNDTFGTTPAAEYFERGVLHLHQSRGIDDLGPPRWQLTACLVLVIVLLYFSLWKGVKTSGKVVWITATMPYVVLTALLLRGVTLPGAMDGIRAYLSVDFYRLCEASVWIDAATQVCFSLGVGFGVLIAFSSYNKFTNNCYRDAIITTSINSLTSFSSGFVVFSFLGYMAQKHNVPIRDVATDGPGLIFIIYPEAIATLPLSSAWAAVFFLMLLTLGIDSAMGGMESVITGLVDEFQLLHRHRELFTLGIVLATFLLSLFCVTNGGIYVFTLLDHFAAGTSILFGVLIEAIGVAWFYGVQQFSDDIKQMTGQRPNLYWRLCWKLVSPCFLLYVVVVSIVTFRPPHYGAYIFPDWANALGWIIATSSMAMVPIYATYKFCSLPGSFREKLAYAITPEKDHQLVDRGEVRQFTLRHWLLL

[4] = species on record: Rattus norvegicus; test: Selectivity ratio of Ki for SERT in Sprague-Dawley rat brainstem to Ki for DAT in Sprague-Dawley rat striatum
[5] = Displacement of [3H]WIN35428 from human DAT Y156F mutant expessed in COS-7 cells incubated for 1.5 hrs by beta scintillation counting analysis; format: cell-based
[6] = molecular target: T1, Sodium-dependent dopamine transporter (Homo sapiens, UniProt Q01959); test: Inhibition of [3H]dopamine uptake from wild type human DAT expressed in COS-7 cells preincubated for 30 mins followed by [3H]dopamine addition and measured after 5 mins by beta scintillation counting analysis; format: cell-based
T1 sequence (Q01959 whole entry): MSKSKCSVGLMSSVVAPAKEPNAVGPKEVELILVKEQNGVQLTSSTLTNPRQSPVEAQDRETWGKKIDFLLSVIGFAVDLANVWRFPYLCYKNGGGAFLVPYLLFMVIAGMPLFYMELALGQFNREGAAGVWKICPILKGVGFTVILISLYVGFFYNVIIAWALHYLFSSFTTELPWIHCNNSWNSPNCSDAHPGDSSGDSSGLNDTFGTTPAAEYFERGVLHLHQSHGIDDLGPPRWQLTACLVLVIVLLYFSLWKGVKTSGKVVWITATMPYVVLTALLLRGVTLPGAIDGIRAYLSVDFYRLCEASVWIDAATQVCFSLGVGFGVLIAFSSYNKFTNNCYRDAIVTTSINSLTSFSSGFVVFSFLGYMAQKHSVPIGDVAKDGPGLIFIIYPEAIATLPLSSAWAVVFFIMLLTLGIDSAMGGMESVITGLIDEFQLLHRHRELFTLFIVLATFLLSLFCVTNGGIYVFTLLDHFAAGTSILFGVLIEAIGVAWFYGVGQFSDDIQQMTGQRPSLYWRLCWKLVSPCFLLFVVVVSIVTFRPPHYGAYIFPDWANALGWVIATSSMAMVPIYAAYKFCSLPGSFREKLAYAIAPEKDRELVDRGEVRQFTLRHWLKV

[7] = Inhibition of [3H]dopamine uptake from human DAT Y335A mutant expressed in COS-7 cells preincubated for 30 mins followed by [3H]dopamine addition and measured after 10 mins by beta scintillation counting analysis; format: cell-based
[8] = molecular target: T1, Sodium-dependent dopamine transporter; test: Displacement of [3H]WIN35428 from wild type human DAT expressed in COS-7 cells incubated for 1.5 hrs by scintillation counting analysis; format: cell-based
[9] = Induction of behavioural effects in wild type C57BL/6J mouse assessed as locomotor activity at 3 to 30 mg/kg, ip measured every 10 mins for 3 hrs by open field test; format: toxicity, organism-based; details: in vivo, dose 3-30 mg/kg
[10] = Metabolic stability of the compound in rat liver microsomes assessed as parent compound remaining at 10 uM measured after 60 mins in presence of NADPH regenerating system by LC/MS analysis; format: ADME, Microsome; details: for Stability: microsomes, 1 h, 10 µM
[11] = Displacement of [3H]nisoxetine from NET in Sprague-Dawley rat prefrontal cortex incubated for 180 mins by microbeta microscintillation counting analysis; format: tissue-based
[12] = Induction of behavioural effects in wild type C57BL/6J mouse assessed as increase in locomotor activity at 30 mg/kg, ip measured after 20 mins by open field test; format: toxicity, organism-based; details: in vivo

| SMILES | pKi [2] | pKi [3] | Ratio Ki [4] | also measured |
| --- | --- | --- | --- | --- |
| CC(O)CN1CCN(CCSC(c2ccc(F)cc2)c2ccc(F)cc2)CC1 (configuration not stated) |  |  |  | remaining at 1 h, 10 µM [1]: 6% |
| [O-][S+](CCN1CCCN(c2ncccn2)CC1)C(c1ccc(F)cc1)c1ccc(F)cc1 (configuration not stated) | 4.55 | 4.61 | 1 |  |
| CC(O)CN1CCCN(CCSC(c2ccc(F)cc2)c2ccc(F)cc2)CC1 (configuration not stated) | 5.61 | 7.20 | 38 | remaining at 1 h, 10 µM [1]: 12%; pKi [5]: 6.63; pKi [6]: 6.79; pKi [7]: 5.48; pKi [8]: 7.10 |
| Fc1ccc(C(SCCN2CCN(c3ccncc3)CC2)c2ccc(F)cc2)cc1 | 6.87 | 7.04 | 1 | pKi [5]: 6.41; pKi [6]: 6.49; pKi [7]: 5.39; pKi [8]: 6.97 |
| CC(O)CN1CCC(CCSC(c2ccc(F)cc2)c2ccc(F)cc2)CC1 (configuration not stated) | 5.72 | 7.17 | 29 |  |
| CC(O)CN1CCN(CC[S+]([O-])C(c2ccc(F)cc2)c2ccc(F)cc2)CC1 (configuration not stated) |  |  |  | Activity [9]: Non-Toxic; pKi [5]: 5.12; remaining at 1 h, 10 µM ([10]; liver microsomes, read-out: Stability): 72%; pKi [6]: 6.04; pKi [7]: 4.84; pKi [8]: 5.99 |
| C[C@@H](O)CN1CCC(CCSC(c2ccc(F)cc2)c2ccc(F)cc2)CC1 | 6.12 | 7.07 | 9 |  |
| CC(O)CN1CCC(CC[S+]([O-])C(c2ccc(F)cc2)c2ccc(F)cc2)CC1 (configuration not stated) | 4.79 | 6.74 | 89 | Activity [9]: Non-Toxic; pKi [5]: 5.63; Stability [10]: 100%; pKi [6]: 6.02; pKi [8]: 6.45; pKi [11]: < 4.00 |
| CC(O)CN1CCCN(CC[S+]([O-])C(c2ccc(F)cc2)c2ccc(F)cc2)CC1 (configuration not stated) | 4.59 | 6.38 | 62 |  |
| OC(Cc1ccccc1)CN1CCCN(CCSC(c2ccc(F)cc2)c2ccc(F)cc2)CC1 (configuration not stated) | 6.54 | 8.14 | 40 |  |
| COc1ccc(N2CCN(CC[S+]([O-])C(c3ccc(F)cc3)c3ccc(F)cc3)CC2)cc1 (configuration not stated) | 4.74 | 5.20 | 3 |  |
| [O-][S+](CCN1CCN(c2ncccn2)CC1)C(c1ccc(F)cc1)c1ccc(F)cc1 (configuration not stated) | 4.33 | 4.66 | 2 |  |
| [O-][S+](CCN1CCCN(CC(O)Cc2ccc(F)cc2)CC1)C(c1ccc(F)cc1)c1ccc(F)cc1 (configuration not stated) | 5.67 | 8.17 | 316 | remaining at 1 h, 10 µM [1]: 15% |
| Fc1ccc(C(SCCN2CCCN(c3ncccn3)CC2)c2ccc(F)cc2)cc1 | 6.14 | 6.29 | 1 |  |
| COc1ccc(CC(O)CN2CCCN(CCSC(c3ccc(F)cc3)c3ccc(F)cc3)CC2)cc1 (configuration not stated) | 6.44 | 7.78 | 22 |  |
| C[C@H](O)CN1CCC(CCSC(c2ccc(F)cc2)c2ccc(F)cc2)CC1 | 5.92 | 7.46 | 35 |  |
| COc1ccc(CC(O)CN2CCCN(CC[S+]([O-])C(c3ccc(F)cc3)c3ccc(F)cc3)CC2)cc1 (configuration not stated) | 5.57 | 7.48 | 80 | remaining at 1 h, 10 µM [1]: 20% |
| CC(F)CN1[C@H](C)CN(CCSC(c2ccc(F)cc2)c2ccc(F)cc2)C[C@@H]1C (some centres not stated) | 4.87 | 6.87 | 99 |  |
| [O-][S+](CCN1CCN(CC(O)Cc2ccccc2)CC1)C(c1ccc(F)cc1)c1ccc(F)cc1 (configuration not stated) |  |  |  | remaining at 1 h, 10 µM [1]: 34%; pKi [5]: 6.94; Activity [12]: Toxic; pKi [6]: 9.09; pKi [7]: 6.27; pKi [8]: 7.97 |
| COc1ccc(N2CCN(CCSC(c3ccc(F)cc3)c3ccc(F)cc3)CC2)cc1 | 6.11 | 6.18 | 1 |  |
| C[C@H](O)CN1CCC(CC[S+]([O-])C(c2ccc(F)cc2)c2ccc(F)cc2)CC1 (some centres not stated) | 4.84 | 6.42 | 37 |  |
| OC(Cc1ccccc1)CN1CCC(CCSC(c2ccc(F)cc2)c2ccc(F)cc2)CC1 (configuration not stated) | 6.70 | 8.23 | 34 |  |
| CC(F)CN1[C@H](C)CN(CC[S+]([O-])C(c2ccc(F)cc2)c2ccc(F)cc2)C[C@@H]1C (some centres not stated) | < 4.00 | 5.98 | > 95 |  |
| CC(O)CN1C(C)CN(CCSC(c2ccc(F)cc2)c2ccc(F)cc2)CC1C (configuration not stated) |  |  |  | remaining at 1 h, 10 µM [1]: 68% |
| [O-][S+](CCN1CCCN(CC(O)Cc2ccccc2)CC1)C(c1ccc(F)cc1)c1ccc(F)cc1 (configuration not stated) | 5.45 | 8.08 | 421 | remaining at 1 h, 10 µM [1]: 0%; Activity [9]: Non-Toxic; pKi [5]: 6.74; pKi [6]: 7.40; pKi [7]: 5.84; pKi [8]: 7.49; pKi [11]: 5.39 |
| [O-][S+](CCN1CCN(c2ccncc2)CC1)C(c1ccc(F)cc1)c1ccc(F)cc1 (configuration not stated) | 5.46 | 5.61 | 1 |  |
| C[C@@H](O)CN1CCC(CC[S+]([O-])C(c2ccc(F)cc2)c2ccc(F)cc2)CC1 (some centres not stated) | 4.46 | 6.56 | 126 |  |
| Fc1ccc(C(SCCN2CCN(c3ncccn3)CC2)c2ccc(F)cc2)cc1 | 6.03 | 6.14 | 1 |  |
| OC(Cc1ccc(F)cc1)CN1CCCN(CCSC(c2ccc(F)cc2)c2ccc(F)cc2)CC1 (configuration not stated) | 6.30 | 7.84 | 35 |  |
| [O-][S+](CCC1CCN(CC(O)Cc2ccccc2)CC1)C(c1ccc(F)cc1)c1ccc(F)cc1 (configuration not stated) | 6.09 | 8.58 | 310 | Stability [10]: 68% |
